Experimental data reported in PubChem BioAssay AID1963982 (Molecular Pharmacology Branch, DTP, NCI, 2024).

Test system: 313798-341-R-J2-PDC spheroids, viability
Assay: Anticancer human tumor 313798-341-R-J2-PDC patient-derived cervical squamous cell carcinoma cell line growth inhibition [PI3K]
Details: spheroids with HUVEC and MSC; for IC50: curve of first compound; for viability, T/C: stronger effect = lower value
In short: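 Stroma-containing spheroids: tumor line, pooled-donor HUVEC, hMSC. Treatments: targeted agents with PI3K inhibitors. Dosing: clinically relevant, half-log spacing, 10 microM ceiling without known Cmax. Read-out: cell viability.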

[1] = second compound 0.00316 µM, first compound 0.0316 µM
[2] = second compound 0.00316 µM, first compound 0.1 µM
[3] = second compound 0.00316 µM, first compound 0.316 µM
[4] = second compound 0.00316 µM, first compound 1 µM
[5] = second compound 0.00316 µM, first compound 3.16 µM
[6] = second compound 0.00316 µM, first compound 10 µM
[7] = second compound 0.01 µM, first compound 0.0316 µM
[8] = second compound 0.01 µM, first compound 0.1 µM
[9] = second compound 0.01 µM, first compound 0.316 µM
[10] = second compound 0.01 µM, first compound 1 µM
[11] = second compound 0.01 µM, first compound 3.16 µM
[12] = second compound 0.01 µM, first compound 10 µM
[13] = second compound 0.0316 µM, first compound 0.0316 µM
[14] = second compound 0.0316 µM, first compound 0.1 µM
[15] = second compound 0.0316 µM, first compound 0.316 µM
[16] = second compound 0.0316 µM, first compound 1 µM
[17] = second compound 0.0316 µM, first compound 3.16 µM
[18] = second compound 0.0316 µM, first compound 10 µM
[19] = second compound 0.1 µM, first compound 0.0316 µM
[20] = second compound 0.1 µM, first compound 0.1 µM
[21] = second compound 0.1 µM, first compound 0.316 µM
[22] = second compound 0.1 µM, first compound 1 µM
[23] = second compound 0.1 µM, first compound 3.16 µM
[24] = second compound 0.1 µM, first compound 10 µM
[25] = second compound 0.316 µM, first compound 0.0316 µM
[26] = second compound 0.316 µM, first compound 0.1 µM
[27] = second compound 0.316 µM, first compound 0.316 µM
[28] = second compound 0.316 µM, first compound 1 µM
[29] = second compound 0.316 µM, first compound 3.16 µM
[30] = second compound 0.316 µM, first compound 10 µM
[31] = second compound 1 µM, first compound 0.0316 µM
[32] = second compound 1 µM, first compound 0.1 µM
[33] = second compound 1 µM, first compound 0.316 µM
[34] = second compound 1 µM, first compound 1 µM
[35] = second compound 1 µM, first compound 3.16 µM
[36] = second compound 1 µM, first compound 10 µM
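Further: spheroids exposed to compounds for seven days.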
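Wherever viability, T/C is given: 100% = DMSO vehicle control viability.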

C[C@@H](NC(=O)c1ncnc(N)c1Cl)c1ncc(C(=O)Nc2cc(C(F)(F)F)c(Cl)cn2)s1 + COc1c(OCCCN2CCOCC2)ccc2c3n(c(=NC(=O)c4cnc(N)nc4)nc12)CCN3
IC50 (second compound 0.00316 µM): > 10 µM | IC50 (second compound 0.01 µM): > 10 µM | IC50 (second compound 0.0316 µM): > 10 µM | IC50 (second compound 0.1 µM): 0.0349 µM | IC50 (second compound 0.316 µM): < 0.0316 µM | IC50 (second compound 1 µM): < 0.0316 µM | viability, T/C [1]: 99.2% | viability, T/C [2]: 99% | viability, T/C [3]: 102% | viability, T/C [4]: 107% | viability, T/C [5]: 114% | viability, T/C [6]: 111% | viability, T/C [7]: 92.4% | viability, T/C [8]: 95.5% | viability, T/C [9]: 88.2% | viability, T/C [10]: 104% | viability, T/C [11]: 104% | viability, T/C [12]: 103% | viability, T/C [13]: 73.6% | viability, T/C [14]: 84.1% | viability, T/C [15]: 84.4% | viability, T/C [16]: 89.9% | viability, T/C [17]: 97.2% | viability, T/C [18]: 96.9% | viability, T/C [19]: 54% | viability, T/C [20]: 45.5% | viability, T/C [21]: 46.5% | viability, T/C [22]: 48% | viability, T/C [23]: 50.5% | viability, T/C [24]: 46.4% | viability, T/C [25]: 17.9% | viability, T/C [26]: 20.6% | viability, T/C [27]: 19.9% | viability, T/C [28]: 19.6% | viability, T/C [29]: 23.1% | viability, T/C [30]: 16.5% | viability, T/C [31]: 11.7% | viability, T/C [32]: 12.9% | viability, T/C [33]: 13.2% | viability, T/C [34]: 13.3% | viability, T/C [35]: 14.5% | viability, T/C [36]: 12.5%

CC1(C)CCC(CN2CCN(c3ccc(C(=O)NS(=O)(=O)c4ccc(NCC5CCOCC5)c([N+](=O)[O-])c4)c(Oc4cnc5[nH]ccc5c4)c3)CC2)=C(c2ccc(Cl)cc2)C1 + CC(Nc1ncnc2nc[nH]c12)c1cc2cccc(Cl)c2c(=O)n1-c1ccccc1
IC50 (second compound 0.0316 µM): 8.41 µM | IC50 (second compound 0.1 µM): 9.89 µM | IC50 (second compound 0.316 µM): 9.97 µM | IC50 (second compound 1 µM): 9.98 µM | IC50 (second compound 3.16 µM): 7.56 µM | IC50 (second compound 10 µM): 6.37 µM | viability, T/C [13]: 104% | viability, T/C [14]: 86.6% | viability, T/C [15]: 107% | viability, T/C [16]: 99.5% | viability, T/C [17]: 85.2% | viability, T/C [18]: 43.6% | viability, T/C [19]: 91.6% | viability, T/C [20]: 108% | viability, T/C [21]: 85.4% | viability, T/C [22]: 89.2% | viability, T/C [23]: 84.8% | viability, T/C [24]: 49.1% | viability, T/C [25]: 99.4% | viability, T/C [26]: 101% | viability, T/C [27]: 102% | viability, T/C [28]: 102% | viability, T/C [29]: 82.4% | viability, T/C [30]: 50% | viability, T/C [31]: 103% | viability, T/C [32]: 100% | viability, T/C [33]: 94.5% | viability, T/C [34]: 96.8% | viability, T/C [35]: 74.4% | viability, T/C [36]: 49.9% | viability, T/C (second compound 3.16 µM, first compound 0.0316 µM): 103% | viability, T/C (second compound 3.16 µM, first compound 0.1 µM): 95.3% | viability, T/C (second compound 3.16 µM, first compound 0.316 µM): 85.2% | viability, T/C (second compound 3.16 µM, first compound 1 µM): 89.8% | viability, T/C (second compound 3.16 µM, first compound 3.16 µM): 79.8% | viability, T/C (second compound 3.16 µM, first compound 10 µM): 40.5% | viability, T/C (second compound 10 µM, first compound 0.0316 µM): 82.1% | viability, T/C (second compound 10 µM, first compound 0.1 µM): 78.8% | viability, T/C (second compound 10 µM, first compound 0.316 µM): 87% | viability, T/C (second compound 10 µM, first compound 1 µM): 78.1% | viability, T/C (second compound 10 µM, first compound 3.16 µM): 62.3% | viability, T/C (second compound 10 µM, first compound 10 µM): 42.1%

C[C@@H](NC(=O)c1ncnc(N)c1Cl)c1ncc(C(=O)Nc2cc(C(F)(F)F)c(Cl)cn2)s1 + CC(Nc1ccc2c(c1)OCCn1cc(N3C(=O)OCC3C(F)F)nc1-2)C(N)=O
IC50 (second compound 0.00316 µM): 5.94 µM | IC50 (second compound 0.01 µM): 5.98 µM | IC50 (second compound 0.0316 µM): 5.9 µM | IC50 (second compound 0.1 µM): 4.72 µM | IC50 (second compound 0.316 µM): 1.91 µM | IC50 (second compound 1 µM): < 0.0316 µM | viability, T/C [1]: 101% | viability, T/C [2]: 106% | viability, T/C [3]: 103% | viability, T/C [4]: 95.4% | viability, T/C [5]: 110% | viability, T/C [6]: 6.06% | viability, T/C [7]: 110% | viability, T/C [8]: 105% | viability, T/C [9]: 95.1% | viability, T/C [10]: 105% | viability, T/C [11]: 110% | viability, T/C [12]: 5.51% | viability, T/C [13]: 99.9% | viability, T/C [14]: 103% | viability, T/C [15]: 110% | viability, T/C [16]: 114% | viability, T/C [17]: 99.6% | viability, T/C [18]: 8.08% | viability, T/C [19]: 81.9% | viability, T/C [20]: 78% | viability, T/C [21]: 91.8% | viability, T/C [22]: 92.7% | viability, T/C [23]: 73.3% | viability, T/C [24]: 6.24% | viability, T/C [25]: 55.2% | viability, T/C [26]: 54.6% | viability, T/C [27]: 61.6% | viability, T/C [28]: 66.5% | viability, T/C [29]: 42.6% | viability, T/C [30]: 9.28% | viability, T/C [31]: 51.8% | viability, T/C [32]: 41.5% | viability, T/C [33]: 53.4% | viability, T/C [34]: 45.4% | viability, T/C [35]: 29.3% | viability, T/C [36]: 14.3%

CCCS(=O)(=O)Nc1ccc(F)c(C(=O)c2c[nH]c3ncc(-c4ccc(Cl)cc4)cc23)c1F + COc1c(OCCCN2CCOCC2)ccc2c3n(c(=NC(=O)c4cnc(N)nc4)nc12)CCN3
IC50 (second compound 0.00316 µM): 6.1 µM | IC50 (second compound 0.01 µM): 5.99 µM | IC50 (second compound 0.0316 µM): 5.16 µM | IC50 (second compound 0.1 µM): 0.11 µM | IC50 (second compound 0.316 µM): < 0.0316 µM | IC50 (second compound 1 µM): < 0.0316 µM | viability, T/C [1]: 109% | viability, T/C [2]: 98.6% | viability, T/C [3]: 99.6% | viability, T/C [4]: 92.3% | viability, T/C [5]: 95.5% | viability, T/C [6]: 15.7% | viability, T/C [7]: 89.1% | viability, T/C [8]: 96.2% | viability, T/C [9]: 103% | viability, T/C [10]: 98.6% | viability, T/C [11]: 97.1% | viability, T/C [12]: 12.5% | viability, T/C [13]: 68.7% | viability, T/C [14]: 94.1% | viability, T/C [15]: 86.5% | viability, T/C [16]: 83.8% | viability, T/C [17]: 78.1% | viability, T/C [18]: 12% | viability, T/C [19]: 47.9% | viability, T/C [20]: 54.2% | viability, T/C [21]: 48.4% | viability, T/C [22]: 41.4% | viability, T/C [23]: 33.9% | viability, T/C [24]: 15.7% | viability, T/C [25]: 16.7% | viability, T/C [26]: 18.7% | viability, T/C [27]: 19.1% | viability, T/C [28]: 20.5% | viability, T/C [29]: 22.4% | viability, T/C [30]: 12.7% | viability, T/C [31]: 13.2% | viability, T/C [32]: 12.4% | viability, T/C [33]: 14.6% | viability, T/C [34]: 14.3% | viability, T/C [35]: 19.8% | viability, T/C [36]: 9.24%
